Source: patent US10648917B2, “Luminescent compositions and applications thereof” (THE PENN STATE RESEARCH FOUNDATION, priority 2015, dated 2020)
Where two headings read alike, the source gives them in different places. Blank lines part the entries; values can stand above or below the compound they belong to.

What was measured:
[1] = tested on: NIH 3T3 mouse fibroblasts; test: In vitro cytotoxicity, CCK-8 cell viability assay; type: cell-based; conditions: for cell viability: 24 h
Experimental: NIH 3T3 mouse fibroblasts (ATCC) were used as model cells for in vitro cytotoxicity evaluations. The cells were cultured in Dulbecco's modified eagle's medium (DMEM), which had been supplemented with 10% fetal bovine serum (FBS) and 1% penicillin streptomycin. The culture flasks were kept in an incubator maintained at 37° C., 5% CO2, and 95% relative humidity. For a typical cytotoxicity study, 3T3 cells were seeded with a density of 5×10^4 cells/ml. […] of cell suspension in DMEM was added to each well in a 96-well plate and then incubated for 24 h. The culture medium was changed to 100 μL of DMEM containing the CFDs with various concentrations and followed by another 24 h incubator. A CCK-8 cell viability assay was used for a quantitative assessment of the viable cells according to the manufacturer's protocol. Viability of cells was normalized to the control of tissue culture plates (n=5).
The in vitro toxicity of CFDs was evaluated by incubating them with NIH 3T3 mouse fibroblasts at different concentrations. […] Therefore, CFDs are generally biocompatible fluorescent compounds that can be used at a high dosage. […] The red fluorescence was relatively weak since CA-Cys has relatively weak red fluorescence emission.

[2] = Fluorescence spectra, absorbance and quantum yield (spectrofluorometer, integration sphere); type: physicochemical; conditions: for Shifting (emission shifting with excitation wavelength): CFD dyes; for Φ (quantum yield) / λem (maximum emission wavelength) / λex (maximum excitation wavelength) / ϵ (extinction coefficiency): Table III
Experimental: Fluorescence spectra were recorded by a Horiba FluoroMax-4 spectrofluorometer. All polymer and small molecule samples were measured at a concentration of 2% w/w in 1,4-dioxane or DI water and a slit size of 1 nm by 1 nm unless otherwise specified. Quantum yields were also determined on the same spectrofluorometer by using a Quantum-φ integration sphere at the same concentration and slit size with the blank solvent as the reference. ^1H-NMR, ^13C-NMR were performed on a JNM ECS 300 spectrometer using DMSO-d6 or D2O as solvents. Attenuated total reflection Fourier transform infrared (ATR-FTIR) spectra were collected with a Bruker V70 spectrometer using BPLP films. A Shimadzu HPLC-MS system with a Phenomenex Kinetex 2.6u XB-C18 100 mm×2.9 mm column, a SPD M20A PDA detector and a RF-20AXS fluorescence detector (Ex. 360 nm and Em. 430 nm) was used to characterize the structures of fluorophores as well. The mobile phase was a gradient of DI water and acetonitrile with 0-6 min 2% acetonitrile, 6-12 min 2%-30% acetonitrile, and 12-15 min 2% acetonitrile. The flow rate was 0.15 ml/min. Electrospray ionization mass spectroscopy (ESI-MS) was performed with a positive voltage of 4.5 kV and negative mode voltage −4.0 kV and a CDL temperature of 200° C. The analysis of the degradation products of BPLPs were conducted by immersing BPLPs in 1M K2CO3 solution at 37° C. for 24 hours. After degradation, the solutions were neutralized by 1N HCl solution to pH 7 and characterized by HPLC-MS as described above.
Fluorescence spectra were recorded by a Horiba FluoroMax-4 spectrofluorometer. All samples were measured at a concentration corresponding to an optical density of 0.1 in water and a slit size of 1 nm by 1 nm unless specified. Quantum yields were also determined on same spectrofluorometer by using a Quantum-φ integration sphere at samples' maximum excitation wavelength and at an increment of 0.3 nm. Photostability studies were done by continuously exciting samples at their maximum excitation wavelength and monitoring at the maximum emission wavelength.
Fluorescence spectra were recorded on a Horiba FluoroMax-4 spectrofluorometer (Horiba Scientific, Edison N.J.). All polymer and samples were characterized at a concentration of 2 wt % in 1,4-dioxane and a slit size of 1 nm by 1 nm unless otherwise specified. The fluorescence properties of small molecule dyes were also measure in 2 wt % DI water solutions at same conditions as polymer solutions. BPLPs were also degraded in 1M K2CO3 solution at 37° C. for 24 hours and then neutralized with 1N HCl solution to pH7. The resulting degradation solutions were subject to further PL characterizations. Quantum yields were also determined on the same spectrofluorometer by using a Quantum-φ integration sphere (Horiba Scientific, Edison N.J.) at the same concentration and slit size with the blank solvent as the reference. Photostability of small molecules and polymers were determined by monitoring the emission intensity decay at their max. Excitation and emission wavelengths over 3 hours of continuous lumination in the spectrofluorometer.
Absorbance Spectra were recorded on Tecan Infinite M200 Pro UV-vis spectroscopy, and fluorescence spectra were recorded on Horiba FluoroMax-4 fluorospectroscopy at concentrations below 0.1 O.D. unless otherwise indicated. Quantum Yields were measured on the Quantum φ Integrating Sphere accessory to the FluoroMax-4, while lifetime measurements were determined through the Time-Correlation Single Photon Counting (TCSPC) accessory to the FluroMax-4. TCSPC was utilized in conjunction with NanoLED pulsed diode light source with peak excitation wavelength at 352 nm and at 10,000 counts peak preset. Emission was collected at the fluorescence λmax, unless otherwise indicated. For all pH-dependence experiments, sample pH was adjusted with sulfuric acid or sodium hydroxide. For all chloride-dependent quenching experiments, magnesium chloride hexahydrate (Sigma Aldrich) was used.

[3] = 2500 μg/ml, vs control (p<0.01)
[4] = Dianion protolytic state (physiological pH)

Shifting (emission shifting with excitation wavelength) [2]: Yes
Φ (quantum yield) [2]: 21.2%
λem (maximum emission wavelength) [2]: 430 nm
λex (maximum excitation wavelength) [2]: 361 nm
ϵ (extinction coefficiency) [2]: 79 M⁻¹ cm⁻¹
band-shift effect ([2]; in acetone (ε=20.7)): moderate
band-shift effect ([2]; in dichloromethane (ε=8.93)): minimal
band-shift effect ([2]; in water (ε=80.1)): strongest
Max. Em. Wavelength ([2]; representative CFDs, Table I): 430 nm
Max. Ex. Wavelength ([2]; representative CFDs, Table I): 361 nm
Quantum Yield ([2]; representative CFDs, Table I): 21.2%
SMILES: CC(C(=O)O)N1C(=O)C=C(C(=O)O)CC1=O (stereo not drawn) [CA-Ala]
cell viability ([1]; 1000 μg/ml, vs control): no significant decrease in cell viability
cell viability [1, 3]: significant decrease

Quantum Yield [2]: ≤ 81%
extinction coefficient [2]: 8640 M⁻¹ cm⁻¹
Abs. Max ([2]; Anion protolytic state): 354 nm
Em. max ([2]; Anion protolytic state): 440 nm
Exc. max ([2]; Anion protolytic state): 360 nm
Stokes shift ([2]; Anion protolytic state): 80 nm
Φ ([2]; Anion protolytic state): 67.24%
ε ([2]; Anion protolytic state): 7454 M⁻¹ cm⁻¹
Abs. Max ([2]; Dianion protolytic state): 346 nm
Em. max ([2]; Dianion protolytic state): 418 nm
Exc. max ([2]; Dianion protolytic state): 350 nm
Stokes shift [2, 4]: 67 nm
Φ [2, 4]: 81.20%
ε [2, 4]: ~8640 M⁻¹ cm⁻¹
Abs. Max ([2]; Neutral protolytic state): 362 nm
Em. max ([2]; Neutral protolytic state): 445 nm
Exc. max ([2]; Neutral protolytic state): 366 nm
Stokes shift ([2]; Neutral protolytic state): 80 nm
Φ ([2]; Neutral protolytic state): Quenched
ε ([2]; Neutral protolytic state): ~8300 M⁻¹ cm⁻¹
Φ (quantum yield) [2]: 81.4%
λem (maximum emission wavelength) [2]: 445 nm
λex (maximum excitation wavelength) [2]: 364 nm
ϵ (extinction coefficiency) [2]: 8640 M⁻¹ cm⁻¹
quenching in organic solvents compared to water ([2]; dioxane, acetone, ethanol, isopropanol, DMSO): minimal quenching
Max. Em. Wavelength ([2]; representative CFDs, Table I): 445 nm
Max. Ex. Wavelength ([2]; representative CFDs, Table I): 364 nm
Quantum Yield ([2]; representative CFDs, Table I): 81.4%
SMILES: O=C(O)c1cc2n(c(=O)c1)C(C(=O)O)CS2 (stereo not drawn) [CA-Cys]
cell viability ([1]; 1000 μg/ml, vs control): no significant decrease in cell viability
cell viability [1, 3]: significant decrease
dosage with in-vitro cytocompatibility ([1]; 3T3 cell line): up to 10.3 mM
Shifting (emission shifting with excitation wavelength) [2]: no fluorescence band shifting was observed and No
